# In the supplement of paper PMC11208160:
# Experiment: recombinant barcode read abundance after kanamycin selection (control-corrected) (log10(CPM+1)); higher = more efficient recombination; sequences stand for … in AGTGCAGAGAAAATCGGCCAGTTTTCTCTGCCTGCAGTCCGCATGCCGT…AGATTTATGCAGCGGACTGCCTTTCTCCCAAAGTGATAAACCGGACAGTATCATGGACCGGTTTTCCCGGTAATCCGTATTTGCAAGGTTGGTTTCACT; site = the 11-nt target
# Summary of the method: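 Recombination efficiency comes from barcode counts at recombinant junctions, converted to counts per million, averaged and corrected against the control. Values appear as log10(CPM+1). They were obtained from a pooled E. coli screen in which each oligo paired a target with an IS621 bridge RNA target-binding loop, and cells were plated in duplicate on chloramphenicol/ampicillin LB agar or on chloramphenicol/ampicillin/kanamycin with 0.1 mM IPTG.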
# 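Also: IS621 recombinase and bridge RNA in Escherichia coli cells.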
row,Sequence,recombinant barcode read abundance (log10)
1,GTGTCAGCTTGGGTTCTAACCTGTTGCCT (site GTGTCACCTAG),0.383
2,GTGTCAGCTTGGGTTCTAACCTGTTGCCT (site GTGTCAGCTAG),1.56
3,GTGTCAGCTTGGGTTCTAACCTGTTGCCT (site GTGTCATCTAG),0.02
4,GTGTCATCTTGGGTTCTAACCTGTTGCCT (site GTGTCAACTAG),0.142
5,GTGTCATCTTGGGTTCTAACCTGTTGCCT (site GTGTCACCTAG),0.0183
6,GTGTCATCTTGGGTTCTAACCTGTTGCCT (site GTGTCAGCTAG),0.0185
7,GTGTCATCTTGGGTTCTAACCTGTTGCCT (site GTGTCATCTAG),0.935
8,GTGTCCTCTTGGGTTCTAACCTGTTGCGT (site CAAAAGGCTCG),0.039
9,GTGTCCTCTTGGGTTCTAACCTGTTGCGT (site GTGTCCTCTAC),2.58
10,GTGTCTCCTTGGGTTCTAACCTGTTGCCG (site GTCTCTCCTCG),0.0207
11,GTGTCTCCTTGGGTTCTAACCTGTTGCCG (site GTGTCTCCTCG),0.0325
12,GTGTGTACTTGGGTTCTAACCTGTTGCCA (site GAGTGAACTTG),0.0252
13,GTGTGTACTTGGGTTCTAACCTGTTGCCA (site GTGTGTACTTG),0.488
14,GTGTGTCCTTGGGTTCTAACCTGTTGCAT (site GTGTATCCTAT),0.381
15,GTGTGTCCTTGGGTTCTAACCTGTTGCAT (site GTGTCTCCTAT),0.122
16,GTGTGTCCTTGGGTTCTAACCTGTTGCAT (site GTGTGTCCTAT),1.7
17,GTGTGTCCTTGGGTTCTAACCTGTTGCAT (site GTGTTTCCTAT),0.052
18,GTGTTTCCTTGGGTTCTAACCTGTTGCAT (site GTGTATCCTAT),0.654
19,GTGTTTCCTTGGGTTCTAACCTGTTGCAT (site GTGTCTCCTAT),0.081
20,GTGTTTCCTTGGGTTCTAACCTGTTGCAT (site GTGTGTCCTAT),0.0468

row,Sequence,recombinant barcode read abundance (log10)
1,GTGTTTCCTTGGGTTCTAACCTGTTGCAT (site GTGTTTCCTAT),0.832
2,GTTAACTCTTGGGTTCTAACCTGTTGCCT (site GTAAACTCTAG),0.2
3,GTTAACTCTTGGGTTCTAACCTGTTGCCT (site GTCAACTCTAG),0.51
4,GTTAACTCTTGGGTTCTAACCTGTTGCCT (site GTGAACTCTAG),0.34
5,GTTAACTCTTGGGTTCTAACCTGTTGCCT (site GTTAACTCTAG),0.877
6,GTTACACCTTGGGTTCTAACCTGTTGCCT (site GTTACACCTAG),0.848
7,GTTACACCTTGGGTTCTAACCTGTTGCCT (site GTTTCACCTAG),0.187
8,GTTACTACTTGGGTTCTAACCTGTTGCCG (site GTTACTACTCG),0.13
9,GTTACTACTTGGGTTCTAACCTGTTGCCG (site TGGTACCCTTA),0.0233
10,GTTCAGACTTGGGTTCTAACCTGTTGCTT (site CCAAGTCCTTG),0.284
11,GTTCAGACTTGGGTTCTAACCTGTTGCTT (site GTTCAGACTAA),1.06
12,GTTCATCCTTGGGTTCTAACCTGTTGCCT (site GATCATCCTAG),0.48
13,GTTCATCCTTGGGTTCTAACCTGTTGCCT (site GTTCATCCTAG),1.02
14,GTTCGTCCTTGGGTTCTAACCTGTTGCCA (site CCAATGTCTAC),0.104
15,GTTCGTCCTTGGGTTCTAACCTGTTGCCA (site GTTCGTCCTTG),0.0879
16,GTTGGGACTTGGGTTCTAACCTGTTGCCT (site GTTGGAACTAC),0.109
17,GTTGGGACTTGGGTTCTAACCTGTTGCCT (site GTTGGGACTAG),2
18,GTTGGGGCTTGGGTTCTAACCTGTTGCGG (site CTTGGGCCTCC),0.019
19,GTTGGGGCTTGGGTTCTAACCTGTTGCGG (site GTTGGGGCTCC),2
